Test results: US9073863B2, “Cyanoquinoline compounds having activity in correcting mutant-CFTR processing and increasing ion transport and uses thereof” (The Regents of the University of California, priority 2011, dated 2015)

Assays:
[1] = molecular target: T1, ΔF508-CFTR (Homo sapiens, UniProt P13569, DEL508-508); experiment: Potentiator assay, YFP fluorescence plate reader iodide influx in low-temperature rescued ΔF508-CFTR expressing FRT cells; type: cell-based; details: for EC50 / Potentiator Vmax / Potentiator EC50: forskolin 20 μM + test compound; for potentiator activity, in words: piperazine ring in place of diamino ethylene tether
T1 construct: expressed in transfected cells; host or cells: Fischer rat thyroid (FRT) epithelial cells, stably transfected
Method: (§1) Screening procedures. Screening of compounds for activity was carried out using a Beckman Coulter platform equipped with FLUOstar fluorescence plate readers (Optima; BMG Labtech) with dual syringe pumps and 500±10 nm excitation and 535±15 nm emission filters (Chroma Corp.). For the corrector assay, FRT cells were grown at 37° C./5% CO2 for 18-24 h and then incubated for 18-24 h with 100 μL of medium containing test compounds (25 μM final concentration). At the time of the assay, cells were washed with PBS and then incubated for 10 min with PBS containing forskolin (20 μM) and genistein (50 μM). For the potentiator assay, FRT cells were grown at 37° C./5% CO2 for 18-24 h and then for 18-24 h at 27° C. At the time of the assay, cells were washed with PBS and then incubated for 10 min with PBS (50 μL) containing forskolin (20 μM) and test compound (0-25 μM final concentration). For both the corrector and potentiator assays, each well was assayed individually for I^− influx by recording fluorescence continuously (200 ms per point) for 2 s (baseline) and then for 12 s after rapid addition of 165 μL PBS in which 137 mM Cl^− was replaced by I^−. Initial I^− influx rate was computed by fitting the final 11.5 seconds of the data to an exponential for extrapolation of initial slope, which was normalized for background-subtracted initial fluorescence. All compound plates contained negative controls and positive controls (10 μM Corr-4a for corrector assay; 50 μM genistein for potentiator assay).
(§2) Screening of about 110,000 small molecules was done to identify new ΔF508-CFTR corrector scaffolds having high correction efficiency and/or having independent potentiator activity. […] FRT cells co-expressing human ΔF508-CFTR and a halide-sensing YFP were incubated with test compounds at 37° C. (corrector assay) or 27° C. (potentiator assay). ΔF508-CFTR function was assayed in a plate reader from YFP fluorescence quenching in response to iodide addition in the presence of forskolin (20 μM) plus genistein (50 μM) for corrector assay, or forskolin (20 μM) alone for potentiator assay. As shown in FIG. 1A (left), primary screening for corrector activity was done using a cell-based fluorescence assay of iodide influx in which FRT cells expressing ΔF508-CFTR and an iodide-sensitive YFP were incubated with test compounds at 10 μM for 18-24 h prior to assay. Iodide influx was measured by addition of extracellular iodide in the presence of a potentiator (50 μM genistein) and cAMP agonist (20 μM forskolin). Compound efficacy and potency (from concentration-dependence studies) in the corrector assay were compared to reference bithiazole Corr-4a (10 μM) and to low-temperature rescued cells. Active compounds were counter-screened for potentiator activity (FIG. 1A, right) in which iodide influx was measured in the ΔF508-CFTR expressing FRT cells after low-temperature rescue and in the presence of 20 μM forskolin.
(§3) Screening procedures. Plate reader activity assay was carried out using a Beckman Coulter platform containing a robotic arm, CO2 incubator containing microplate carousel, plate-washer, liquid handling work station, bar code reader, de-lidding station, plate sealer, and FLUOstar fluorescence plate readers (Optima; BMG LABTECH Gmbh), equipped with dual syringe pumps and 500±10 nm excitation and 535±15 nm emission filters (Chroma Corp.). For the corrector assay, ΔF508-CFTR-expressing FRT cells were grown at 37° C. (90% humidity; 5% CO2) for 18-24 h and then incubated for 18-24 h with 100 μL of medium containing test compounds (0-25 μM final concentration). At the time of the assay, cells were washed with PBS and then incubated for 10 min with PBS containing forskolin (20 μM) and genistein (50 μM). For the potentiator assay, FRT cells were grown at 37° C. (90% humidity; 5% CO2) for 18-24 h and then for 18-24 h at 27° C. […]

[2] = molecular target: T1, ΔF508-CFTR; experiment: Corrector assay, YFP fluorescence plate reader iodide influx in ΔF508-CFTR expressing FRT cells; type: cell-based; details: for Corrector Vmax / EC50 / Corrector EC50: 18-24 h with compound at 37° C., forskolin 20 μM + genistein 50 μM; for corrector and potentiator activities, in words: concentration-dependence in corrector and potentiator I− influx assays (FIG. 2, FIG. 7); for corrector activity, comparison in words: propylene tether, methoxy position on arylamide
Method: as §1, §2, §3

[3] = Table VIII, FRT cells 18-24 h at 27° C., I− influx
[4] = Table VIII, FRT cells, I− influx
[5] = Table IX, additional experiments, 18-24 h at 27° C.
[6] = Table IX, additional experiments

T1 sequence (P13569 with tags, fused parts or gaps DEL508-508): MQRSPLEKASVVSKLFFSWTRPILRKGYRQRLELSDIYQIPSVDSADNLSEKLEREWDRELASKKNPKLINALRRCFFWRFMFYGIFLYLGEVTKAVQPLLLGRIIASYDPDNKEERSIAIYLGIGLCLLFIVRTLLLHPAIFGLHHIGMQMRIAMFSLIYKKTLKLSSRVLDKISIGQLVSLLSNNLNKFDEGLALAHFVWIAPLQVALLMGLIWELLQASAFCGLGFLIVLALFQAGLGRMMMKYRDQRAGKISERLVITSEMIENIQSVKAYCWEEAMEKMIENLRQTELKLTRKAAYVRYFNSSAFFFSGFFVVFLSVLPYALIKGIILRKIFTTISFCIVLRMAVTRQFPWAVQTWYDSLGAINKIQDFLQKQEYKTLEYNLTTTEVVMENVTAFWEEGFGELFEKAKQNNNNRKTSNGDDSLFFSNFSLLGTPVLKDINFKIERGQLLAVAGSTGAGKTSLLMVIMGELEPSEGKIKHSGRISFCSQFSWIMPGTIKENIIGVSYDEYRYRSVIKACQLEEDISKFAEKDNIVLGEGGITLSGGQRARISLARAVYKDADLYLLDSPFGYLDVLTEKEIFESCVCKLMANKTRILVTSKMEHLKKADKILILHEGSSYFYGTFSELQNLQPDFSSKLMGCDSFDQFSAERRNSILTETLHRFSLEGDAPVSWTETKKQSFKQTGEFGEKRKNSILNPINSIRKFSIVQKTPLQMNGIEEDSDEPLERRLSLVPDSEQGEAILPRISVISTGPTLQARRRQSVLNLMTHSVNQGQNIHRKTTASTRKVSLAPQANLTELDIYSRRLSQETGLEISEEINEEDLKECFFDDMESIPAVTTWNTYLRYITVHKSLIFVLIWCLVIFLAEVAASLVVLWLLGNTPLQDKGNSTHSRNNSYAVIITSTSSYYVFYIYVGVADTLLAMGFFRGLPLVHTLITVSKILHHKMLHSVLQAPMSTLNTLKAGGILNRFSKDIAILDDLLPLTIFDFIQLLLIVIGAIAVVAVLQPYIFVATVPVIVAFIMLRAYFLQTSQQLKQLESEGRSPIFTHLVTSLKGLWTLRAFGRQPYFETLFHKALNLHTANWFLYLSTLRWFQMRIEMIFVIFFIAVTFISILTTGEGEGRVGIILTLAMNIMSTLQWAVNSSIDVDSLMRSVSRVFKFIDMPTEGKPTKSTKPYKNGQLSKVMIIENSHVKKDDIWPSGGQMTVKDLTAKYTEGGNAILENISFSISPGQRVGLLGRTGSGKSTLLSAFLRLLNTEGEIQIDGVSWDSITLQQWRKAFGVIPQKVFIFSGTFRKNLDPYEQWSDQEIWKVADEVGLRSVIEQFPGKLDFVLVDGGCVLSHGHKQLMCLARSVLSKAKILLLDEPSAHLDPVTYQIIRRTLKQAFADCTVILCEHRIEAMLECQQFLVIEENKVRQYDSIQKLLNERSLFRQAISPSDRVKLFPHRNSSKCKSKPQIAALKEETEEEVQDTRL

Compound	EC50 [1, 3]	Potentiator Vmax [1, 3]	Corrector Vmax [2, 4]	corrector and potentiator activities, in words [2]	further results
COc1ccc2nc(N3CCN(C(=O)c4ccccc4F)CC3)c(C#N)cc2c1	11 µM	195 µM/s	140 µM/s		EC50 [2, 4]: 4.2 µM
COc1ccc2nc(N3CCN(C(=O)c4ccccc4Cl)CC3)c(C#N)cc2c1	13 µM	261 µM/s	inactive		Corrector EC50 [2, 4]: inactive
COc1ccc2nc(N3CCN(C(=O)c4ccccc4Br)CC3)c(C#N)cc2c1	5 µM	235 µM/s	inactive		Corrector EC50 [2, 4]: inactive
Cc1ccc2cc(C#N)c(N3CCCN(C(=O)c4cccs4)CC3)nc2c1	13 µM	261 µM/s	inactive		Corrector EC50 [2, 4]: inactive
Cc1cc(C)c2cc(C#N)c(N3CCN(C(=O)c4ccncc4)CC3)nc2c1					Potentiator EC50 [1, 5]: inactive; Potentiator Vmax [1, 5]: inactive; Corrector EC50 [2, 6]: inactive; Corrector Vmax [2, 6]: inactive
COc1ccccc1C(=O)NCCCNc1nc2cc(C)cc(C)c2cc1C#N					EC50 [1, 5]: 27.6 ± 2 µM; Potentiator Vmax [1, 5]: 254 µM/s; Corrector Vmax [2, 6]: inactive
Cc1cc(C)c2cc(C#N)c(NCCNC(=O)c3ccccc3)nc2c1					EC50 [1, 5]: 10 ± 2 µM; Potentiator Vmax [1, 5]: 210 µM/s; Corrector Vmax [2, 6]: inactive
COc1cccc(OC)c1C(=O)NCCNc1nc2cc(C)cc(C)c2cc1C#N					EC50 [1, 5]: 11.5 ± 1 µM; Potentiator Vmax [1, 5]: 119 µM/s; Corrector Vmax [2, 6]: 111 µM/s; EC50 [2, 6]: 3.7 ± 0.6 µM
COc1ccc(C(=O)NCCNc2nc3cc(C)cc(C)c3cc2C#N)c(OC)c1					EC50 [1, 5]: 55 ± 3.5 µM; Potentiator Vmax [1, 5]: 426 µM/s; Corrector Vmax [2, 6]: 108 µM/s; EC50 [2, 6]: 4.2 ± 0.4 µM
Cc1cc(C)c2cc(C#N)c(NCCNC(=O)c3cnccn3)nc2c1					Potentiator Vmax [1, 5]: inactive; Corrector Vmax [2, 6]: 174 µM/s; EC50 [2, 6]: 6.7 ± 1 µM
COc1ccc(C(=O)NCCNc2nc3c(C)cccc3cc2C#N)cc1OC [Compound 01]				corrector and potentiator activities comparable to those of Compound 22	
COc1ccc(C(=O)NCCNc2nc3ccc(C)cc3cc2C#N)cc1OC [Compound 02]				corrector and potentiator activities comparable to those of Compound 22	
Cc1cc(C)c2cc(C#N)c(NCCNC(=O)c3cccs3)nc2c1 [Compound 03]				dual activities	
COc1ccc(S(=O)(=O)N2CCN(c3nc4ccc(C)cc4cc3C#N)CC2)cc1 [Compound 05]				dual activities	
CCOc1ccccc1NC(=S)NCCNc1nc2c(C)cccc2cc1C#N [Compound 14]				potentiator-only activity	
COc1ccc(C(=O)NCCNc2nc3cc(C)cc(C)c3cc2C#N)cc1OC [Compound 103]				both corrector and potentiator activities	
COc1ccc(C(=O)NCCNc2nc3cc(C)cc(C)c3cc2C#N)nc1 [Compound 110]				both corrector and potentiator activities	

Compound	EC50 [1, 3]	Potentiator Vmax [1, 3]	Corrector Vmax [2, 4]	corrector and potentiator activities, in words [2]	further results
COc1ccccc1C(=O)N1CCN(c2nc3cc(C)cc(C)c3cc2C#N)CC1 [Compound AW1]				potentiator-only activity	potentiator activity, in words [1]: significant potentiator activity
COc1cccc(C(=O)N2CCN(c3nc4cc(C)cc(C)c4cc3C#N)CC2)c1 [Compound AW2]					potentiator activity, in words [1]: significant potentiator activity
COc1ccc(C(=O)N2CCN(c3nc4cc(C)cc(C)c4cc3C#N)CC2)cc1 [Compound AW3]				potentiator-only activity	potentiator activity, in words [1]: significant potentiator activity
COc1cccc(C(=O)NCCCNc2nc3cc(C)cc(C)c3cc2C#N)c1 [Compound AW8]					corrector activity, comparison in words [2]: greater corrector activity than Compound AW7
COc1ccc(C(=O)NCCCNc2nc3cc(C)cc(C)c3cc2C#N)cc1 [Compound AW9]					corrector activity, comparison in words [2]: greater corrector activity than Compound AW7
Cc1cc(C)c2cc(C#N)c(NCCNC(=O)c3cccnc3)nc2c1 [Compound CP5]				both corrector and potentiator activities	
COc1ccc(C(=O)NCCNc2nc3c(C)cccc3cc2C#N)cc1OC [drawing 137]	15 µM	250 µM/s	223 µM/s		EC50 [2, 4]: 3.8 µM
COc1ccc(C(=O)NCCNc2nc3ccc(C)cc3cc2C#N)cc1OC [drawing 138]	15 µM	297 µM/s	281 µM/s		EC50 [2, 4]: 3.9 µM
Cc1cc(C)c2cc(C#N)c(NCCNC(=O)c3cccs3)nc2c1 [drawing 139]	14 µM	289 µM/s	228 µM/s		EC50 [2, 4]: 14 µM
COc1ccc(S(=O)(=O)N2CCN(c3nc4ccc(C)cc4cc3C#N)CC2)cc1 [drawing 140]	3.8 µM	72 µM/s	102 µM/s		EC50 [2, 4]: 5 µM
CCOc1ccccc1NC(=S)NCCNc1nc2c(C)cccc2cc1C#N [drawing 144]	6 µM	275 µM/s	inactive		Corrector EC50 [2, 4]: inactive
COc1cccc(C(=O)NCCNc2nc3cc(C)cc(C)c3cc2C#N)c1 [drawing 146]		306 µM/s	300 µM/s		
COc1ccccc1C(=O)NCCNc1nc2cc(C)cc(C)c2cc1C#N [drawing 147]	2.3 µM	154 µM/s	114 µM/s		
Cc1cc(C)c2cc(C#N)c(N3CCN(C(=O)c4cccnc4)CC3)nc2c1 [drawing 156]		inactive			Potentiator EC50 [1, 3]: inactive
Cc1cc(C)c2cc(C#N)c(NCCCNC(=O)c3ccccn3)nc2c1 [drawing 161]	6.1 µM	233 µM/s			
Cc1cc(C)c2cc(C#N)c(NCCCNC(=O)c3ccncc3)nc2c1 [drawing 163]			inactive		Corrector EC50 [2, 4]: inactive
